Where two headings read alike, the source gives them in different places.
Target: T1, human GPR119 receptor (Homo sapiens, UniProt Q8TDV5, S329A/T327A)
T1 construct: N-terminal leader […]; expressed in transfected cells
T1 sequence (Q8TDV5 with tags, fused parts or gaps T327A/S329A): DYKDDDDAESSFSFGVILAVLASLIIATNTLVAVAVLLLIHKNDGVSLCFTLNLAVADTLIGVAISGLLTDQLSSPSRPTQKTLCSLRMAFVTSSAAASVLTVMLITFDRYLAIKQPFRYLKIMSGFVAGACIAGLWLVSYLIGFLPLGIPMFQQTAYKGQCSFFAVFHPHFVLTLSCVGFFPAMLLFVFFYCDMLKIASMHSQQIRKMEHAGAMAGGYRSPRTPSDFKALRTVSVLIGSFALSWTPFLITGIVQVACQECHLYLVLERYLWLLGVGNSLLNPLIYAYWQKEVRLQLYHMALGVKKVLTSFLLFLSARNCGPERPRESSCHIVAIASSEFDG
Assay: cAMP assay (LANCE cAMP-384) in HEK293 cells stably expressing mutant human GPR119 receptor
Format: cell-based
Conditions: for activation at 10 µM: HEK293, 20 min
Procedure, shortened: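 Agonist EC50 came from nonlinear regression over 12 concentrations (30 μM–100 pM), with % stimulation at 10 μM where no EC50 was obtained. Cells: stable HEK293 with mutant human GPR119 (T327A/S329A), 20 min compound at 37° C; cAMP read by LANCE kit with standard curve.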

[1] = at 10 μM, printed in EC50 column of the 36th table, read-out: stimulation in % at 10 μM
[2] = cAMP accumulation, HEK293 cells stably expressing mutant human GPR119, read-out: EC50
[3] = the 34th table, compounds 65-1 to 65-24, read-out: EC50
[4] = the 19th table, unit inferred, read-out: EC 50
[5] = the 43rd table, compounds 75-1 to 75-38, read-out: EC50
[6] = single concentration 10 μM, given where no EC50 value could be determined, read-out: % stimulation at 10 μM
[7] = the 36th table, compounds 66-1 to 66-51, read-out: EC50
[8] = the 37th table, compounds 66-52 to 66-64, read-out: EC50
[9] = the 44th table, compounds 77-1 to 77-14, read-out: EC50

Cc1cccnc1N1CCC(ON=C2CCN(c3ccc(S(C)(=O)=O)cc3F)CC2)CC1 [Example 63-3]
EC50 (the 32nd table, read-out: EC50): > 10000 nM

CS(=O)(=O)c1ccc(N2CCC(=NOC3CCN(Cc4ccc5c(c4)CCO5)CC3)CC2)c(F)c1 [Example 66-35]
activation at 10 µM [1]: 61%

CCNC(=O)NCc1cc(F)c(N2CCC(=NOC3CCN(C(=O)OC(C)C)CC3)CC2)cc1F [Example 16-1, 4-(1-{4-[(3-Ethyl-ureido)-methyl]-2,5-difluoro-phenyl}-piperidin-4-ylideneaminooxy)-piperidine-1-carboxylic acid isopropyl ester]
EC50 [2]: 168 nM

CC(C)OC(=O)N1CCC(ON=C2CCN(c3cc(F)c(C(C)O)cc3F)CC2)CC1 (stereo not shown) [Example 50-1, 4-{1-[2,5-Difluoro-4-(1-hydroxy-ethyl)-phenyl]-piperidin-4-ylideneaminooxy}-piperidine-1-carboxylic acid isopropyl ester]
EC50 [2]: 48 nM

CS(=O)(=O)c1ccc(N2CCC(=NOC3CCN(C(=O)OC4CCC4)CC3)CC2)c(F)c1 [Example 64-1, 4-[1-(2-Fluoro-4-methanesulfonyl-phenyl)-piperidin-4-ylideneaminooxy]-piperidine-1-carboxylic acid cyclobutyl ester]
EC50 (the 33rd table, read-out: EC50): 81 nM

CS(=O)(=O)c1ccc(N2CCC(=NOC3CCN(C(=O)OCc4ccccc4)CC3)CC2)c(F)c1 [Example 65-14]
EC50 [3]: 153 nM

CS(=O)(=O)c1ccc(N2CCC(=NOC3CCN(c4ccc(C#N)cn4)CC3)CC2)c(F)c1 [Example 63-23]
EC50 (the 32nd table, read-out: EC50): 1300 nM

CC(C)OC(=O)N1CCC(ON=C2CCN(c3ccc(S(N)(=O)=O)cc3F)CC2)CC1 [Example 2-36]
EC50 [2]: 130 nM

CC(C)OC(=O)N1CCC(ON=C2CCN(c3cc(F)c(C(=O)NCCCO)cc3F)CC2)CC1 [Example 29-9]
EC50 (the 15th table, read-out: EC50): 94 nM

CCc1cnc(N2CCC(ON=C3CCN(c4cc(F)c(C(=O)NCC5COCCN5)cc4F)CC3)CC2)nc1 (stereo not shown) [Example 29-87]
EC50 [4]: 128 nM

CC(C)OC(=O)N1CCC(ON=C2CCN(c3cc(F)c(C(=O)N4CCCC[C@H]4CN4CCCC4)cc3F)CC2)CC1 [Example 29-31]
EC50 (the 15th table, read-out: EC50): 225 nM

CC(C)OC(=O)N1CCC(ON=C2CCN(c3cc(F)c(CC(=O)N4CCCCC4CN4CCCC4)cc3F)CC2)CC1 (stereo not shown) [Example 75-30]
EC50 [5]: 333 nM

CCc1cnc(N2CCC(ON=C3CCN(c4cc(F)c(C(=O)NCC[C@H](N)C(=O)O)cc4F)CC3)CC2)nc1 [Example 29-117]
EC50 [4]: 745 nM

CNCCN(C)C(=O)c1cc(F)c(N2CCC(=NOC3CCN(C(=O)OC(C)C)CC3)CC2)cc1F [Example 29-5]
EC50 (the 15th table, read-out: EC50): 215 nM

CC(C)OC(=O)N1CCC(ON=C2CCN(c3cc(F)c(CC(=O)N4CCCCC4CN(C)C)cc3F)CC2)CC1 (stereo not shown) [Example 75-36]
EC50 [5]: 322 nM

CC(C)OC(=O)N1CCC(ON=C2CCN(c3nccc(CO)c3F)CC2)CC1 [Example 2-64]
activation at 10 µM [6]: 79%

COc1ccc(CN2CCC(ON=C3CCN(c4ccc(S(C)(=O)=O)cc4F)CC3)CC2)cc1F [Example 66-38]
EC50 [7]: 435 nM

CC(C)OC(=O)N1CCC(ON=C2CCN(c3nccc(C(F)(F)F)n3)CC2)CC1 [Example 2-66]
EC50 [2]: > 10000 nM

CC(C)OC(=O)N1CCC(ON=C2CCN(c3cc(F)c(CN(C)C)cc3F)CC2)CC1 [Example 5-8]
EC50 [2]: > 10000 nM

CC(C)OC(=O)N1CCC(ON=C2CCN(c3cc(F)c(C(=O)NCCC(=O)O)cc3F)CC2)CC1 [Example 30-2]
EC50 [2]: 1150 nM

CC(C)OC(=O)N1CCC(ON=C2CCN(c3cc(F)c(CC(=O)N4CCCC(CN)C4)cc3F)CC2)CC1 (stereo not shown) [Example 75-22]
EC50 [5]: 108 nM

CC(C)CN1CCC(ON=C2CCN(c3ccc(S(C)(=O)=O)cc3F)CC2)CC1 [Example 66-21]
activation at 10 µM [1]: 64%

CS(=O)(=O)c1ccc(N2CCC(=NOC3CCN(c4ncc(Br)cn4)CC3)CC2)c(F)c1 [Example 63-19]
EC50 (the 32nd table, read-out: EC50): 77 nM

Cn1ccnc1CN1CCC(ON=C2CCN(c3ccc(S(C)(=O)=O)cc3F)CC2)CC1 [Example 66-12]
EC50 [7]: > 10000 nM

CCc1ccc(CN2CCC(ON=C3CCN(c4cc(F)c(S(C)(=O)=O)cc4F)CC3)CC2)cc1 [Example 66-55]
EC50 [8]: 37 nM

CC(C)OC(=O)N1CCC(ON=C2CCN(c3cc(F)c(Cn4cccc5ncnc4-5)cc3F)CC2)CC1 [Example 14-7]
EC50 [2]: 713 nM

CC(C)OC(=O)N1CCC(ON=C2CCN(c3cc(F)c(C4=NCCN4)cc3F)CC2)CC1 [Example 19-1, 4-{1-[4-(4,5-Dihydro-1H-imidazol-2-yl)-2,5-difluoro-phenyl]-piperidin-4-ylideneaminooxy}-piperidine-1-carboxylic acid isopropyl ester]
activation at 10 µM [6]: 53%

CC(N)COC(=O)N1CCC(ON=C2CCN(c3ccc(S(C)(=O)=O)cc3F)CC2)CC1 (stereo not shown) [Example 64-35]
EC50 (the 33rd table, read-out: EC50): > 10000 nM

C/C=C/c1ccc(CN2CCC(ON=C3CCN(c4cc(F)c(S(C)(=O)=O)cc4F)CC3)CC2)c(F)c1 [Example 66-62]
EC50 [8]: 136 nM

CS(=O)(=O)c1ccc(N2CCC(=NOC3CCN(C(=O)OCCn4cccc4)CC3)CC2)c(F)c1 [Example 64-18]
EC50 (the 33rd table, read-out: EC50): 461 nM

CCOCCOC(=O)N1CCC(ON=C2CCN(c3ccc(S(C)(=O)=O)cc3F)CC2)CC1 [Example 64-10]
EC50 (the 33rd table, read-out: EC50): 1280 nM

CC(C)OC(=O)N1CCC(ON=C2CCN(c3cc(F)c(-c4cccnc4)cc3F)CC2)CC1 [Example 27-4]
EC50 [2]: 182 nM

CCc1cnc(N2CCC(ON=C3CCN(c4cc(F)c(CC(=O)NC5CCNCC5)cc4F)CC3)CC2)nc1 [Example 77-10]
EC50 [9]: 20 nM

CCc1cnc(N2CCC(ON=C3CCN(c4cc(F)c(C(=O)N5CC[C@H](CN)C5)cc4F)CC3)CC2)nc1 [Example 29-120]
EC50 [4]: 202 nM

Cc1nc(C)c(-c2cc(F)c(N3CCC(=NOC4CCN(C(=O)OC(C)C)CC4)CC3)cc2F)s1 [Example 27-25]
EC50 [2]: > 10000 nM

CC(C)OC(=O)N1CCC(ON=C2CCN(c3nccc(Cl)n3)CC2)CC1 [Example 2-47]
EC50 [2]: 2010 nM

CC(C)OC(=O)N1CCC(ON=C2CCN(c3cc(F)c(CS(C)(=O)=O)cc3F)CC2)CC1 [Example 13-1, 4-[1-(2,5-Difluoro-4-methanesulfonylmethyl-phenyl)-piperidin-4-ylideneaminooxy]-piperidine-1-carboxylic acid isopropyl ester]
EC50 [2]: 30 nM

CC(C)NC(=O)N1CCC(ON=C2CCN(c3ccc(S(C)(=O)=O)cc3F)CC2)CC1 [Example 65-8]
EC50 [3]: > 10000 nM

CS(=O)(=O)c1ccc(N2CCC(=NOC3CCN(Cc4ccc(OC(F)(F)F)cc4)CC3)CC2)c(F)c1 [Example 66-42]
EC50 [7]: 503 nM

Cc1nnnn1Cc1cnc(N2CCC(=NOC3CCN(C(=O)OC(C)C)CC3)CC2)c(F)c1 [Example 54-6]
EC50 (the 30th table, read-out: EC50): 1150 nM

CS(=O)(=O)c1ccc(N2CCC(=NOC3CCN(C(=O)OCC4CCC4)CC3)CC2)c(F)c1 [Example 64-6]
EC50 (the 33rd table, read-out: EC50): 36 nM

CC(C)OC(=O)N1CCC(ON=C2CCN(c3cc(F)c(CC(=O)NCC4CCNC4)cc3F)CC2)CC1 (stereo not shown) [Example 75-27]
EC50 [5]: 797 nM

CCc1cnc(N2CCC(ON=C3CCN(c4cc(F)c(C(=O)NCC5CCCN5C)cc4F)CC3)CC2)nc1 (stereo not shown) [Example 29-137]
EC50 [4]: 212 nM

CCc1cnc(N2CCC(ON=C3CCN(c4cc(F)c(CC(=O)N5CC[C@@H](N)C5)cc4F)CC3)CC2)nc1 [Example 77-11]
EC50 [9]: 47 nM

CC(C)OC(=O)N1CCC(ON=C2CCN(c3cc(F)c(Cn4cncn4)cc3F)CC2)CC1 [Example 14-18]
EC50 [2]: 1350 nM

CC(C)c1ccc(CN2CCC(ON=C3CCN(c4ccc(S(C)(=O)=O)cc4F)CC3)CC2)cc1 [Example 66-32]
EC50 [7]: 332 nM

CC(C)OC(=O)N1CCC(ON=C2CN(c3ccc(S(C)(=O)=O)cc3F)C2)CC1 [Example 61-3]
EC50 (the 31st table, read-out: EC50): 161 nM

CNC1CCN(C(=O)Cc2cc(F)c(N3CCC(=NOC4CCN(C(=O)OC(C)C)CC4)CC3)cc2F)CC1 [Example 75-21]
EC50 [5]: 126 nM

CCOC(=O)NCc1cc(F)c(N2CCC(=NOC3CCN(C(=O)OC(C)C)CC3)CC2)cc1F [Example 16-4]
EC50 [2]: 70 nM

CCc1ncc(CN2CCC(ON=C3CCN(c4ccc(S(C)(=O)=O)cc4F)CC3)CC2)cn1 [Example 66-49]
activation at 10 µM [1]: 75%

CNC(=O)c1cc(F)c(N2CCC(=NOC3CCN(Cc4ccc(-c5cncnc5)cc4)CC3)CC2)cc1F [Example 66-69]
EC50 (the 38th table, compounds 66-65 to 66-72, read-out: EC50): 2260 nM

CC(C)OC(=O)N1CCC(ON=C2CCN(c3cc(F)c(-n4cncn4)cc3F)CC2)CC1 [Example 22-4]
EC50 [2]: 33 nM

CC(CCN1CCC(ON=C2CCN(c3ccc(S(C)(=O)=O)cc3F)CC2)CC1)c1ccccc1 (stereo not shown) [Example 66-24]
activation at 10 µM [1]: 53%

Cc1cc(N2CCC(=NOC3CCN(C(=O)OC(C)C)CC3)CC2)c(F)cc1C(N)=O [Example 2-76]
EC50 [2]: 534 nM

CC(C)OC(=O)N1CCC(ON=C2CCN(c3cc(O)ncc3F)CC2)CC1 [Example 2-74]
EC50 [2]: > 10000 nM

From patent publication US8293729B2 (Boehringer Ingelheim International GmbH, priority 2009, dated 2012)
